The values below come from patent US20170008921A1, “C-3 NOVEL TRITERPENONE WITH C-28 REVERSE AMIDE DERIVATIVES AS HIV INHIBITORS” (HETERO RESEARCH FOUNDATION, priority 2015, published 2017).

A short description of data set [1]: Cyto-toxicity (MTT assay). It counts as cell-based.
The nature of data set [2]: Single dose oral pharmacokinetic study. It counts as in vivo. Particulars: mouse, Mice oral PK @30 mg/kg, plasma, vehicle 10% Solutol+20% PEG; for AUC(0-t): read-out: AUC0-t; for Cmax: read-out: Cmax. The gist of the method:
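Rats or mice dosed orally at 30 mg/kg in 10% Solutol+20% PEG. Acetonitrile precipitation, then LC-MS/MS quantification for PK parameters.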

Turning to `Cc1cn(-c2ccc(C(=O)NC(C)(C)C(=O)N[C@@]34CC[C@]5(C)[C@H](CC[C@@H]6[C@@]7(C)CC[C@H](OC(=O)[C@H]8C[C@@H](C(=O)O)C8(C)C)C(C)(C)[C@@H]7CC[C@]65C)C3=C(C(C)C)C(=O)C4)cc2)cn1` [Example 20, (1R,3S)-3-((((3aR,5aR,5bR,7aR,9S,11aR,11bR,13aS)-1-isopropyl-5a,5b,8,8,11a-pentamethyl-3a-(2-methyl-2-(4-(4-methyl-1H-imidazol-1-yl)benz amido)propanamido)-2-oxo-3,3a,4,5,5a,5b,6,7,7a,8,9,10,11,11a,11b,12,13,13a-octadeca hydro-2H-cyclopenta[a]chrysen-9-yl)oxy)carbonyl)-2,2-dimethylcyclobutane-1-carboxylic acid], in data set [1], the viability – broadly, a per cent measure of how many cells are alive, often set against a control – at 4 days, 0.001 µM worked out at 91%; the viability at 4 days, 0.003 µM was 85%; the viability at 4 days, 0.01 µM worked out at 40%. In data set [2], the AUC(0-t) stood at 236 µg·h/mL and the Cmax (in general, the peak of the concentration-time curve) came out at 19000 ng/mL.
`CC(C)C1=C2[C@H]3CC[C@@H]4[C@@]5(C)CC[C@H](OC(=O)[C@@H]6C[C@H](C(=O)O)C6(C)C)C(C)(C)[C@@H]5CC[C@@]4(C)[C@]3(C)CC[C@@]2(NC(=O)C(C)(C)NC(=O)c2ccc(Cl)cc2)CC1=O` [Example 21, (1S,3R)-3-((((3aR,5aR,5bR,7aR,9S,11aR,11bR,13aS)-3a-(2-(4-chlorobenzamido)-2-methylpropanamido)-1-isopropyl-5a,5b,8,8,11a-pentamethyl-2-oxo-3,3a,4,5,5a,5b,6,7,7a,8,9,10,11,11a,11b,12,13,13a-octadecahydro-2H-cyclopenta[a]chrysen-9-yl)oxy)carbonyl)-2,2-dimethylcyclobutane-1-carboxylic acid]: in data set [1], the viability at 4 days, 0.01 µM is 36%; the viability at 4 days, 0.1 µM came to 7%; the viability at 4 days, 1 µM worked out at 6%. Further, in data set [2], the AUC(0-t) is 191 µg·h/mL and the Cmax was 16000 ng/mL.
For `CC(C)C1=C2[C@H]3CC[C@@H]4[C@@]5(C)CC[C@H](OC(=O)[C@H]6C[C@@H](C(=O)O)C6(C)C)C(C)(C)[C@@H]5CC[C@@]4(C)[C@]3(C)CC[C@@]2(NC(=O)C(C)(C)NC(=O)c2ccc(F)cc2)CC1=O` [Example 22, (1R,3S)-3-((((3aR,5aR,5bR,7aR,9S,11aR,11bR,13aS)-3a-(2-(4-fluorobenzamido)-2-methylpropanamido)-1-isopropyl-5a,5b,8,8,11a-pentamethyl-2-oxo-3,3a, 4,5,5a,5b,6,7,7a,8,9,10,11,11a,11b,12,13,13a-octadecahydro-2H-cyclopenta[a]chrysen-9-yl)oxy)carbonyl)-2,2-dimethylcyclobutane-1-carboxylic acid] the same measures were 21%, 3%, 3%, 490 µg·h/mL and 23600 ng/mL.
With `Cc1ccc(C(=O)NC(C)(C)C(=O)N[C@@]23CC[C@]4(C)[C@H](CC[C@@H]5[C@@]6(C)CC[C@H](OC(=O)[C@H]7C[C@@H](C(=O)O)C7(C)C)C(C)(C)[C@@H]6CC[C@]54C)C2=C(C(C)C)C(=O)C3)cc1` [Example 23, (1R,3S)-3-((((3aR,5aR,5bR,7aR,9S,11aR,11bR,13aS)-1-isopropyl-5a,5b,8,8,11a-pentamethyl-3a-(2-methyl-2-(4-methylbenzamido)propanamido)-2-oxo-3,3a,4,5,5a,5b,6,7,7a,8,9,10,11,11a,11b,12,13,13a-octadecahydro-2H-cyclopenta[a]chrysen-9-yl)oxy)carbonyl)-2,2-dimethylcyclobutane-1-carboxylic acid], in data set [1], the viability at 4 days, 0.01 µM worked out at 34%; the viability at 4 days, 0.1 µM came to 8%; the viability at 4 days, 1 µM amounted to 4%. In addition, in data set [2], the AUC(0-t) came out at 590 µg·h/mL and the Cmax is 29700 ng/mL.
